Data: patent US6737383B1, “Herbicidal oxadiazolidines” (priority 1999, dated 2004)

Assays:
[1] = test system: bedstraw; experiment: Test B pre/postemergence bedstraw; assay type: in vivo, Galium aparine
Summary of the method: (§1)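 Test chemicals in a non-phytotoxic solvent mixture with surfactant were sprayed preemergence onto planted seeds and postemergence onto plants 2 to 18 cm tall (1- to 4-leaf stage). After twelve to sixteen days in a greenhouse, injury was visually rated against untreated controls from 0 (no effect) to 10 (complete control).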

[2] = test system: bamyardgrass; experiment: Test B flood test barnyardgrass; assay type: in vivo, Echinochloa crus-galli; conditions: Pre-emergence
Summary of the method: (§2)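 Plants were grown to the 2-leaf stage before treatment with test chemical, then held in a greenhouse for twelve to sixteen days. Injury was visually rated against untreated controls on a 0–10 scale, where 0 is no effect and 10 is complete control.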

[3] = test system: rice; experiment: Test B flood test rice; assay type: in vivo, Oryza sativa; conditions: Pre-emergence
Summary of the method: as §2

[4] = test system: duck salad; experiment: Test B flood test duck salad; assay type: in vivo, Heteranthera limosa; conditions: Pre-emergence
Summary of the method: as §2

[5] = test system: corn; experiment: Test B pre/postemergence corn; assay type: in vivo, Zea mays
Summary of the method: as §1

[6] = test system: wild oat; experiment: Test B pre/postemergence wild oat; assay type: in vivo, Avena fatua
Summary of the method: as §1

[7] = test system: pigweed; experiment: Test B pre/postemergence pigweed; assay type: in vivo, Amaranthus retroflexus
Summary of the method: as §1

[8] = test system: crabgrass; experiment: Test B pre/postemergence crabgrass; assay type: in vivo, Digitaria sanguinalis
Summary of the method: as §1

[9] = test system: giant foxtail; experiment: Test B pre/postemergence giant foxtail; assay type: in vivo, Setaria faberii
Summary of the method: as §1

[10] = test system: purple nutsedge; experiment: Test B pre/postemergence purple nutsedge; assay type: in vivo, Cyperus rotundus
Summary of the method: as §1

[11] = test system: rape; experiment: Test B pre/postemergence rape; assay type: in vivo, Brassica napus
Summary of the method: as §1

[12] = test system: velvetleaf; experiment: Test B pre/postemergence velvetleaf; assay type: in vivo, Abutilon theophrasti
Summary of the method: as §1

[13] = test system: cocklebur; experiment: Test B pre/postemergence cocklebur; assay type: in vivo, Xanthium strumarium
Summary of the method: as §1

[14] = test system: surinam grass; experiment: Test B pre/postemergence surinam grass; assay type: in vivo, Brachiaria decumbens
Summary of the method: as §1

[15] = test system: sugar beet; experiment: Test B pre/postemergence sugar beet; assay type: in vivo, Beta vulgaris
Summary of the method: as §1

[16] = test system: morningglory; experiment: Test B pre/postemergence morningglory; assay type: in vivo, Ipomoea hederacea
Summary of the method: as §1

[17] = test system: blackgrass; experiment: Test B pre/postemergence blackgrass; assay type: in vivo, Alopecurus myosuroides
Summary of the method: as §1

[18] = test system: wheat; experiment: Test B pre/postemergence wheat; assay type: in vivo, Triticum aestivum
Summary of the method: as §1

[19] = test system: soybean; experiment: Test B pre/postemergence soybean; assay type: in vivo, Glycine max
Summary of the method: as §1

[20] = test system: smallflower flatsedge; experiment: Test B flood test smallflower flatsedge; assay type: in vivo, Cyperus difformis; conditions: Pre-emergence
Summary of the method: as §2

[21] = Preemergence, Rate 62 g/ha, scale of 0 to 10 where 0 is no effect and 10 is complete control
[22] = Preemergence, Rate 250 g/ha, scale of 0 to 10 where 0 is no effect and 10 is complete control
[23] = Preemergence, Rate 500 g/ha, scale of 0 to 10 where 0 is no effect and 10 is complete control
[24] = Rate 62 g/ha, Postemergence, scale of 0 to 10 where 0 is no effect and 10 is complete control
[25] = Rate 125 g/ha, Postemergence, scale 0 to 10
[26] = Rate 125 g/ha, Preemergence, scale of 0 to 10 where 0 is no effect and 10 is complete control
[27] = Rate 500 g/ha, Postemergence, scale 0 to 10, 0 no effect, 10 complete control
[28] = Rate 1000 g/ha, scale 0 to 10 (0 no effect, 10 complete control)
[29] = Rate 125 g/ha, flood test species, scale 0 to 10 where 0 is no effect and 10 is complete control
[30] = Rate 250 g/ha, flood-test species, scale 0 to 10, 0 is no effect, 10 is complete control
[31] = Rate 500 g/ha, flood test species, scale 0 to 10 (0 no effect, 10 complete control)

CCOC(=O)C(C)N(C(=O)n1oc(=O)n(CC)c1=O)c1ccc(F)cc1 (stereo not drawn) [Compound 248]
1: Soybean plant response rating [19, 27]
0: Bedstraw plant response rating [1, 21] | Bedstraw plant response rating [1, 22] | Plant response rating, Bedstraw [1, 23] | Bedstraw plant response rating [1, 24] | Bedstraw plant response rating [1, 25] | Bedstraw plant response rating [1, 26] | Plant response rating (0 to 10; 0 is no effect, 10 is complete control), Bedstraw ([1]; Rate 250 g/ha, Postemergence) | Bedstraw plant response rating [1, 27] | Barnyardgrass plant response rating [2, 28] | Barnyardgrass plant response rating [2, 29] | Barnyardgrass plant response rating [2, 30] | Barnyardgrass plant response rating [2, 31] | Rice plant response rating [3, 28] | Rice plant response rating [3, 29] | Rice plant response rating [3, 30] | Rice plant response rating [3, 31] | Ducksalad plant response rating [4, 28] | Ducksalad plant response rating [4, 29] | Ducksalad plant response rating [4, 30] | Ducksalad plant response rating [4, 31] | Corn plant response rating [5, 21] | Corn plant response rating [5, 22] | Plant response rating, Corn [5, 23] | Corn plant response rating [5, 24] | Corn plant response rating [5, 25] | Corn plant response rating [5, 26] | Plant response rating (0 to 10; 0 is no effect, 10 is complete control), Corn ([5]; Rate 250 g/ha, Postemergence) | Corn plant response rating [5, 27] | Wild oats plant response rating [6, 21] | Wild oats plant response rating [6, 22] | Plant response rating, Wild oats [6, 23] | Wild oats plant response rating [6, 26] | Wild oats plant response rating [6, 27] | Redroot pigweed plant response rating [7, 21] | Redroot pigweed plant response rating [7, 22] | Plant response rating, Redroot pigweed [7, 23] | Redroot pigweed plant response rating [7, 26] | Plant response rating (0 to 10; 0 is no effect, 10 is complete control), Redroot pigweed ([7]; Rate 250 g/ha, Postemergence) | Redroot pigweed plant response rating [7, 27] | Crabgrass plant response rating [8, 21] | Crabgrass plant response rating [8, 22] | Plant response rating, Crabgrass [8, 23] | Crabgrass plant response rating [8, 26] | Plant response rating (0 to 10; 0 is no effect, 10 is complete control), Crabgrass ([8]; Rate 250 g/ha, Postemergence) | Crabgrass plant response rating [8, 27] | Giant foxtail plant response rating [9, 21] | Giant foxtail plant response rating [9, 22] | Plant response rating, Giant foxtail [9, 23] | Giant foxtail plant response rating [9, 26] | Plant response rating (0 to 10; 0 is no effect, 10 is complete control), Giant foxtail ([9]; Rate 250 g/ha, Postemergence) | Giant foxtail plant response rating [9, 27] | Nutsedge plant response rating [10, 21] | Nutsedge plant response rating [10, 22] | Plant response rating, Nutsedge [10, 23] | Nutsedge plant response rating [10, 26] | Plant response rating (0 to 10; 0 is no effect, 10 is complete control), Nutsedge ([10]; Rate 250 g/ha, Postemergence) | Nutsedge plant response rating [10, 27] | Rape plant response rating [11, 21] | Rape plant response rating [11, 22] | Plant response rating, Rape [11, 23] | Rape plant response rating [11, 26] | Plant response rating (0 to 10; 0 is no effect, 10 is complete control), Rape ([11]; Rate 250 g/ha, Postemergence) | Rape plant response rating [11, 27] | Velvetleaf plant response rating [12, 21] | Velvetleaf plant response rating [12, 22] | Plant response rating, Velvetleaf [12, 23] | Velvetleaf plant response rating [12, 26] | Velvetleaf plant response rating [12, 27] | Cocklebur plant response rating [13, 21] | Cocklebur plant response rating [13, 22] | Plant response rating, Cocklebur [13, 23] | Cocklebur plant response rating [13, 24] | Cocklebur plant response rating [13, 25] | Cocklebur plant response rating [13, 26] | Plant response rating (0 to 10; 0 is no effect, 10 is complete control), Cocklebur ([13]; Rate 250 g/ha, Postemergence) | Cocklebur plant response rating [13, 27] | B. signalgrass plant response rating [14, 21] | B. signalgrass plant response rating [14, 22] | Plant response rating, B. signalgrass [14, 23] | B. signalgrass plant response rating [14, 24] | B. signalgrass plant response rating ([14]; Rate 125 g/ha, Postemergence, scale 0 (no effect) to 10 (complete control)) | B. signalgrass plant response rating [14, 26] | Plant response rating (0 to 10; 0 is no effect, 10 is complete control), B. signalgrass ([14]; Rate 250 g/ha, Postemergence) | B. signalgrass plant response rating [14, 27] | Sugarbeets plant response rating [15, 21] | Sugarbeets plant response rating [15, 22] | Plant response rating, Sugarbeets [15, 23] | Sugarbeets plant response rating [15, 26] | Sugarbeets plant response rating [15, 27] | Morningglory plant response rating [16, 21] | Morningglory plant response rating [16, 22] | Plant response rating, Morningglory [16, 23] | Morningglory plant response rating [16, 26] | Plant response rating (0 to 10; 0 is no effect, 10 is complete control), Morningglory ([16]; Rate 250 g/ha, Postemergence) | Morningglory plant response rating [16, 27] | Blackgrass plant response rating [17, 21] | Blackgrass plant response rating [17, 22] | Plant response rating, Blackgrass [17, 23] | Blackgrass plant response rating [17, 24] | Blackgrass plant response rating [17, 25] | Blackgrass plant response rating [17, 26] | Plant response rating (0 to 10; 0 is no effect, 10 is complete control), Blackgrass ([17]; Rate 250 g/ha, Postemergence) | Blackgrass plant response rating [17, 27] | Wheat plant response rating [18, 21] | Wheat plant response rating [18, 22] | Plant response rating, Wheat [18, 23] | Wheat plant response rating [18, 26] | Wheat plant response rating [18, 27] | Soybean plant response rating [19, 21] | Soybean plant response rating [19, 22] | Plant response rating, Soybean [19, 23] | Soybean plant response rating [19, 26] | S. Flatsedge plant response rating [20, 28] | S. Flatsedge plant response rating [20, 29] | S. Flatsedge plant response rating [20, 30] | S. Flatsedge plant response rating [20, 31]
